From patent US10640545B2 (THE GOVERNORS OF THE UNIVERSITY OF ALBERTA, priority 2017, dated 2020) come the findings set out here.

Data set [1] addresses T1, wild-type rat apelin receptor (Rattus norvegicus, UniProt Q9JHG3).
T1 construct: expressed in transfected cells
T1 sequence (Q9JHG3 1-377): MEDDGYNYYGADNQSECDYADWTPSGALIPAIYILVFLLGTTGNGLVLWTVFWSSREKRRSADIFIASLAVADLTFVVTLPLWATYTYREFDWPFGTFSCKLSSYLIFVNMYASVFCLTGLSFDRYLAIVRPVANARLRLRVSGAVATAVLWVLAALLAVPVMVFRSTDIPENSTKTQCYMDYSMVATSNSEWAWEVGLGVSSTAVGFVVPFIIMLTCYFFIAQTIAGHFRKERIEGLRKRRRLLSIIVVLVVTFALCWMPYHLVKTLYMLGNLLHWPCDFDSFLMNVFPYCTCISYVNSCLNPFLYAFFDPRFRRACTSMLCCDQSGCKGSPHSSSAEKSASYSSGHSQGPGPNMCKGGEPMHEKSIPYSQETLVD
Nature of the data set: Radioligand binding, displacement of [125I]-pyr-1-apelin-13 on CHO cell membranes. In outline:
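Membranes (1 μg) from CHO cells stably expressing rat apelin receptor-EGFP incubated 3 h at 20 °C with 0.2 nM [125I]-pyr-1-apelin-13 and varying peptide concentrations in 50 mM HEPES, 5 mM MgCl2, 1% BSA, pH 7.5. Bound radioactivity measured by filtration and gamma counting.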
A general note: In a radioligand displacement assay an active substance lowers the binding of a labelled ligand.

For data set [2], the target named is KLKB1 (Homo sapiens, UniProt P03952). The experiment in a line: Kinetic parameters for KLKB1 cleavage. In kind it is biochemical. On the set-up: purchased Novoprotein. As to conditions: for Km / kcat: enzyme KLKB1.
The target of data set [3] is Recombinant Human Neprilysin (Homo sapiens, UniProt P08473). Nature of the data set: Neprilysin qualitative cleavage assay (MALDI-TOF). As to conditions: rhNEP 2 ng/μL, 37° C., first degradation products by MALDI-TOF. The method, then: Native apelin-17 (2) and apelin peptides 5, 54, 56, 57, 58 and 59 were dissolved in Milli-Q water (1 mM). Recombinant Human Neprilysin (rhNEP, Sino Biological) was reconstituted in Tris buffer (100 mM Tris, 100 mM NaCl, 10 mM ZnCl2, pH 7.5). To initiate the assays, rhNEP was diluted in Tris buffer to a 2 ng/μL final concentration, and pre-incubated at 37° C. for 10 minutes prior to the addition of 5 μL of apelin peptide (1 mM). Aliquots (1 μL) were taken at 1, 2, 4, 6, 12, 24, 36, and 48 hours and analyzed with MALDI-TOF mass spectrometry to qualitatively determine the time point at which degradation products could be observed.

Where a SMILES comes first, the peptide text is derived from it. [ ]: non-standard residue; d: D form. Phe(4-Br) = N[C@@H](Cc1ccc(Br)cc1)C(=O)O; NMeL = CN[C@@H](CC(C)C)C(=O)O; Nle = CCCC[C@H](N)C(=O)O; Aib = CC(C)(N)C(=O)O

KLKB1, sequence (P03952 20-638): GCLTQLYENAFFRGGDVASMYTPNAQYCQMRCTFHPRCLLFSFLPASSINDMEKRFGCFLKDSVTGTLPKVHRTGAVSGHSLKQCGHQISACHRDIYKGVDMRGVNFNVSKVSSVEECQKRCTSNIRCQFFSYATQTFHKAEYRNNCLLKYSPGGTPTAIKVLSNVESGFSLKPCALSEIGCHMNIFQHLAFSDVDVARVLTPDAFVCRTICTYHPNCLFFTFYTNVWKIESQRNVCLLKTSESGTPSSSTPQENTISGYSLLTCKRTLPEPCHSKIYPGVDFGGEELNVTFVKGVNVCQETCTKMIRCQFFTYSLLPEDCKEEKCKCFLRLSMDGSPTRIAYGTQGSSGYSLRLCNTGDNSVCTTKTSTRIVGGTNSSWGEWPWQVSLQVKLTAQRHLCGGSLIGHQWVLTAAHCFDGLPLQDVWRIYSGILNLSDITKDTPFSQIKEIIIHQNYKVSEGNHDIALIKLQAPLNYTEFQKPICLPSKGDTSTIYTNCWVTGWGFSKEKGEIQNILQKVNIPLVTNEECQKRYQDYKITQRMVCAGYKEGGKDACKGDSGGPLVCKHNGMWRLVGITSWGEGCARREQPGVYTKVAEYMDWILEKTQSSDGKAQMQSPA
Recombinant Human Neprilysin, sequence (P08473 whole entry): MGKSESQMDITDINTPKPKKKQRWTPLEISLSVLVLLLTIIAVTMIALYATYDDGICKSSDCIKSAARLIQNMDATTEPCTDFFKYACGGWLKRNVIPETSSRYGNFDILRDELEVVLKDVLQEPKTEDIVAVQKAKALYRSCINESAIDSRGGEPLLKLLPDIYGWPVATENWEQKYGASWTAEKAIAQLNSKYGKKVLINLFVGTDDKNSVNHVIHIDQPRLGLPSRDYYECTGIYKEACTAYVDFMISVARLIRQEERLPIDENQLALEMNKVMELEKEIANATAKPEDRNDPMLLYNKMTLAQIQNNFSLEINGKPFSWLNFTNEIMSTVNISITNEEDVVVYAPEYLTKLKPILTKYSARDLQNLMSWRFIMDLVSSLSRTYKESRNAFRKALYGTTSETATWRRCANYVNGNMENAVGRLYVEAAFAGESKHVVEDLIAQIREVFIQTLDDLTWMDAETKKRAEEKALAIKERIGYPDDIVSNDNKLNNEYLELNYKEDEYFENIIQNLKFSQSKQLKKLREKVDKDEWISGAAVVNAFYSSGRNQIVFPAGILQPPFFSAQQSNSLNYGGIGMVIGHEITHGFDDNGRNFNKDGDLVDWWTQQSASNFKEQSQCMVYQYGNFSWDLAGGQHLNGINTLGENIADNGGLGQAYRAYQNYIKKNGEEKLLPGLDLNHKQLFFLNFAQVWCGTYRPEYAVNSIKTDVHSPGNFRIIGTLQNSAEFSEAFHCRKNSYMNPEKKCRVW

For orientation: Km means the concentration of substrate that gives half-maximal velocity. The term kcat denotes the maximal rate divided by the concentration of active sites. On to `CCCC[C@H](NC(=O)[C@@H]1CCCN1C(=O)CNC(=O)[C@H](CCCCN)NC(=O)[C@H](Cc1c[nH]cn1)NC(=O)[C@H](CO)NC(=O)[C@H](CC(C)C)N(C)C(=O)[C@H](CCCNC(=N)N)NC(=O)[C@@H]1CCCN1C(=O)[C@H](CCCNC(=N)N)NC(=O)[C@H](CCC(N)=O)NC(=O)[C@H](CCCNC(=N)N)NC(=O)[C@H](CCCNC(=N)N)NC(=O)[C@H](Cc1ccccc1)NC(=O)[C@@H](N)CCCCN)C(=O)NC(C)(C)C(=O)N[C@@H](Cc1ccc(Br)cc1)C(=O)O` [Peptide 11] (H-KFRRQRPR[NMeL]SHKGP[Nle][Aib][Phe(4-Br)]-OH; C-terminus assumed), for which, in data set [1] (rat apelin receptor), the “receptor binding affinity (in words)” value is listed as “sub-nanomolar receptor affinities”. Besides, the “degradation by KLKB1 (in words)” value in data set [2] (KLKB1) was “degraded quickly”. Also, in data set [2], the Km came out at 245 ± 75 µM and the turnover number (kcat) worked out at 16.5 ± 2.1 s⁻¹.

For orientation: Ki means the dissociation constant of the complex between target and ligand, obtained from inhibition or displacement. For the compound `CSCC[C@H](NC(=O)[C@@H]1CCCN1C(=O)CNC(=O)[C@H](CCCCN)NC(=O)[C@H](Cc1cnc[nH]1)NC(=O)[C@H](CO)NC(=O)[C@H](CC(C)C)NC(=O)[C@H](CCCNC(=N)N)NC(=O)[C@@H]1CCCN1C(=O)[C@H](CCCNC(=N)N)NC(=O)[C@H](CCC(N)=O)NC(=O)[C@H](CCCNC(=N)N)NC(=O)[C@H](CCCNC(=N)N)NC(=O)[C@H](Cc1ccccc1)NC(=O)[C@@H](N)CCCCN)C(=O)N1CCC[C@H]1C(=O)N[C@@H](Cc1ccccc1)C(=O)O` [Peptide 2, reference compound], the inhibition constant (Ki) in data set [1] (displacement of [125I]-pyr-1-apelin-13 (0.2 nM), CHO membranes, rat apelin receptor-EGFP, means ± SE, read-out: Affinity Ki) was found to be 0.05 nM. In addition, the “Degradation Onset Timepoint with NEP” value in data set [3] is recorded as less than 30 min. In data set [2], the Km worked out at 97 ± 21 µM and the catalytic constant (kcat) was 13.7 ± 1.3 s⁻¹.
